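Following 48 hours of exposure in 96-well plates, responses at five concentrations were used to interpolate endpoints linearly. The concentration for 50% growth inhibition is given as GI50. At the TGI there is no net growth.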
Assays:
Assay in all cases: NCI tumour cell line growth inhibition, 48 h
[1] = system: CCRF-CEM leukemia
[2] = system: COLO 205 colon
[3] = system: IGROV1 ovarian
[4] = system: LOX IMVI melanoma
[5] = system: M19-MEL melanoma
[6] = system: SF-539 CNS
[7] = system: SNB-78 CNS
[8] = system: SW-620 colon
[9] = system: TK-10 renal
[10] = system: NCI/ADR-RES ovarian

COc1ccc2oc3c4c2c1CCC4CCC3=O (centres undefined)
TGI [1]: > 100 µM | TGI [2]: > 100 µM | TGI [3]: > 100 µM | TGI [4]: > 100 µM | TGI [5]: > 100 µM | TGI [6]: > 100 µM | TGI [7]: > 100 µM | TGI [8]: > 100 µM | TGI [9]: > 100 µM

COc1ccc(C(O)/C(=N\NC(N)=S)c2nc3ccc([N+](=O)[O-])cc3[nH]c2=O)cc1OC (centres undefined)
TGI [1]: > 100 µM | TGI [2]: > 100 µM | TGI [3]: > 100 µM | TGI [4]: > 100 µM | TGI [5]: > 100 µM | TGI [8]: > 100 µM | TGI [9]: > 100 µM

O=C1C(Br)=CC2(C=C1Br)CCN=c1c2c(O)c2nc3ccccc3c3ccnc1c23
GI50 [1]: 0.132 µM | TGI [1]: 0.612 µM | GI50 [2]: 1.05 µM | TGI [2]: 3.03 µM | GI50 [3]: 0.846 µM | TGI [3]: 7.22 µM | GI50 [4]: 1.24 µM | TGI [4]: 4.35 µM | GI50 [10]: 2.04 µM | TGI [10]: 29.2 µM | GI50 [6]: 1.55 µM | TGI [6]: 6.11 µM | GI50 [8]: 0.712 µM | TGI [8]: 1.72 µM | GI50 [9]: 3.47 µM | TGI [9]: 10.3 µM

CCOC(=O)C(=O)Nc1ccc(C)cc1C
TGI [1]: > 100 µM | TGI [2]: > 100 µM | TGI [3]: > 100 µM | TGI [4]: > 100 µM | TGI [5]: > 100 µM | TGI [6]: > 100 µM | TGI [7]: > 100 µM | TGI [8]: > 100 µM | TGI [9]: > 100 µM

COc1ccc(C(=O)c2ccc(OC)c(OC)c2OC)cc1
GI50 [1]: 1.46 µM | TGI [1]: > 100 µM | GI50 [2]: 1.14 µM | TGI [2]: 3.13 µM | GI50 [3]: 1.76 µM | TGI [3]: > 100 µM | GI50 [4]: 6.63 µM | TGI [4]: > 100 µM | GI50 [10]: 0.693 µM | TGI [10]: 7.8 µM | GI50 [6]: 1.79 µM | TGI [6]: 8.2 µM | GI50 [8]: 0.377 µM | TGI [8]: > 100 µM | GI50 [9]: 2.85 µM | TGI [9]: > 100 µM

CCCCCCCCCCCCCCCCCC1=NCCN1CS(=O)(=O)O
GI50 [1]: 3.96 µM | TGI [1]: > 100 µM | GI50 [2]: 5.07 µM | TGI [2]: 18.5 µM | GI50 [3]: 3.9 µM | TGI [3]: 14.1 µM | GI50 [4]: 2.86 µM | TGI [4]: 12.5 µM | GI50 [10]: 16.1 µM | TGI [10]: 35.3 µM | GI50 [6]: 19.4 µM | TGI [6]: 46.8 µM | GI50 [8]: 7.19 µM | TGI [8]: 31.2 µM | GI50 [9]: 18.6 µM | TGI [9]: 35.4 µM

CC(C)[C@@]12C[C@@H](OC(=O)[C@H]3CO3)[C@@](C)(O1)[C@@H]1CC[C@@H](C)[C@H]1[C@@H]2OC(=O)/C=C/c1ccccc1
GI50 [1]: 18 µM | TGI [1]: > 84.7 µM | GI50 [2]: 23.2 µM | TGI [2]: > 65.1 µM | GI50 [3]: 23.7 µM | TGI [3]: > 83.4 µM | GI50 [4]: 12.6 µM | TGI [4]: 46.3 µM | GI50 [10]: 0.799 µM | TGI [10]: 35.9 µM | GI50 [6]: 17.5 µM | TGI [6]: 43.3 µM | GI50 [8]: 29.9 µM | TGI [8]: > 100 µM | GI50 [9]: 33.9 µM | TGI [9]: > 100 µM

O=C1OCC(c2cccs2)=C1Cl
GI50 [1]: 84.1 µM | TGI [1]: > 100 µM | GI50 [2]: 32.2 µM | TGI [2]: > 100 µM | GI50 [3]: > 100 µM | TGI [3]: > 100 µM | GI50 [4]: 89.5 µM | TGI [4]: > 100 µM | GI50 [10]: 48.1 µM | TGI [10]: > 100 µM | GI50 [6]: 23.2 µM | TGI [6]: 86 µM | GI50 [8]: > 100 µM | TGI [8]: > 100 µM | GI50 [9]: 54.2 µM | TGI [9]: > 100 µM

CC(=O)c1ccc(NC(=O)CSc2nnc(-c3cc(-c4ccc(C)cc4)nc4ccccc34)o2)cc1
GI50 [1]: 4.03 µM | TGI [1]: > 100 µM | GI50 [2]: 6.54 µM | TGI [2]: > 100 µM | GI50 [3]: 3.31 µM | TGI [3]: > 100 µM | GI50 [4]: 2.64 µM | TGI [4]: 9.09 µM | GI50 [10]: 3.14 µM | TGI [10]: > 100 µM | GI50 [6]: 1.8 µM | TGI [6]: 3.92 µM | GI50 [8]: 3.24 µM | TGI [8]: > 100 µM | GI50 [9]: 1.99 µM | TGI [9]: 4.89 µM

CCC[CH2][Sn]([CH2]CCC)([O]C(=O)c1cc(F)cc(F)c1)[O]C(=O)c1cc(F)cc(F)c1
GI50 [2]: 0.841 µM | TGI [2]: 2.05 µM | GI50 [3]: 1.55 µM | TGI [3]: 2.94 µM | GI50 [4]: 0.617 µM | TGI [4]: 1.91 µM | GI50 [5]: 0.514 µM | TGI [5]: 1.74 µM | GI50 [6]: 1.52 µM | TGI [6]: 2.89 µM | GI50 [7]: 0.404 µM | TGI [7]: 1.66 µM | GI50 [8]: 0.564 µM | TGI [8]: 1.81 µM | GI50 [9]: 1.3 µM | TGI [9]: 2.61 µM

Cc1nc2sccn2c(=O)c1CCN1CCC(=C(c2ccc(F)cc2)c2ccc(F)cc2)CC1
GI50 [1]: 0.559 µM | TGI [1]: 26.3 µM | GI50 [2]: 7.69 µM | TGI [2]: 24.1 µM | GI50 [3]: 9.96 µM | TGI [3]: 26.4 µM | GI50 [4]: 8.18 µM | TGI [4]: 22.9 µM | GI50 [10]: 13.8 µM | TGI [10]: 32.9 µM | GI50 [6]: 15 µM | TGI [6]: 28.9 µM | GI50 [8]: 10.9 µM | TGI [8]: 24.1 µM | GI50 [9]: 13.9 µM | TGI [9]: 27.6 µM

CCOC(=O)c1sc2nc3sc(N=Nc4ccc(Cl)cc4)c(O)n3c(=S)c2c1C
GI50 [1]: 32.2 µM | TGI [1]: > 100 µM | GI50 [2]: 17.7 µM | TGI [2]: > 100 µM | GI50 [3]: > 100 µM | TGI [3]: > 100 µM | GI50 [4]: 26.1 µM | TGI [4]: 87.1 µM | GI50 [10]: 17.4 µM | TGI [10]: 44.6 µM | GI50 [6]: 25.1 µM | TGI [6]: 50.5 µM | GI50 [8]: 35.4 µM | TGI [8]: > 100 µM | GI50 [9]: 25.9 µM | TGI [9]: 96.4 µM

COc1cc(NCCCCN=C(N)NC(N)=NC(C)C)c2ncccc2c1
GI50 [1]: 4.57 µM | TGI [1]: 27.3 µM | GI50 [2]: 0.987 µM | TGI [2]: 4.46 µM | GI50 [3]: 0.439 µM | TGI [3]: 6.32 µM | GI50 [4]: 3.68 µM | TGI [4]: 15.5 µM | GI50 [10]: > 100 µM | TGI [10]: > 100 µM | GI50 [6]: 8.14 µM | TGI [6]: 22.2 µM | GI50 [8]: 5.76 µM | TGI [8]: 22.2 µM | GI50 [9]: 10.8 µM | TGI [9]: 43.3 µM

CCn1cc(/C=C/C(C)c2cn(CC)c(=O)[nH]c2=O)c(=O)[nH]c1=O (centres undefined)
TGI [1]: > 100 µM | TGI [2]: > 100 µM | TGI [3]: > 100 µM | TGI [4]: > 100 µM | TGI [5]: > 100 µM | TGI [6]: > 100 µM | TGI [8]: > 100 µM | TGI [9]: > 100 µM

NC(=O)C1=NNc2ccccc2C(=O)N1c1ccccc1
TGI [1]: > 100 µM | TGI [2]: > 100 µM | TGI [3]: > 100 µM | TGI [4]: > 100 µM | TGI [10]: > 100 µM | TGI [6]: > 100 µM | TGI [8]: > 100 µM | TGI [9]: > 100 µM

Brc1ccc(-c2nnc(-c3nn(-c4ccccc4)c4nc5ccccc5nc34)o2)cc1
TGI [1]: > 100 µM | TGI [2]: > 100 µM | TGI [3]: > 100 µM | TGI [4]: > 100 µM | TGI [6]: > 100 µM | TGI [7]: > 100 µM | TGI [8]: > 100 µM | TGI [9]: > 100 µM

Reference: PubChem BioAssay (NCI)
